# Experimental data reported in patent US20250296938A1, “Compounds that Interact with the Ras Superfamily for the Treatment of Cancers, Inflammatory Diseases, Rasopathies, and Fibrotic Disease” (SHY Therapeutics, LLC, priority 2018, published 2025).
# Where two headings read alike, the source gives them in different places.
# Columns and labels:
# Assay in all cases: Ras GTP binding domain inhibition assay (Cy3-GTP/Cy5-GTP competition)
# [1] = biological target: Rho-A (Homo sapiens, UniProt P61586)
# Procedure, shortened: (§1)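 First, His-tagged protein is coated on nickel wells overnight at 4 °C. Next, compound (20 μM single point or serial dilution) is added for 3 h at room temperature, with or without Sos exchange factor in the last hour. Finally, 100 nM labelled GTP binds for 45 min and retained signal is measured.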
# [2] = biological target: T1, KRas G12D mutant (Homo sapiens, UniProt P01116, G12D)
# T1 construct: fused on or other part: His tag, used for capture on nickel-coated plates
# Procedure, shortened: as §1
# [3] = biological target: Rac-1 (Homo sapiens, UniProt P63000)
# Procedure, shortened: as §1
# [4] = test system: KRas wild type; design: species or system human; conditions: 20 μM; for KRas wild type + SOS: % inh.: with SOS (Table 7A); for KRas wild type % inh.: without SOS (Table 7A)
# Procedure, shortened: as §1
# [5] = test system: KRas Q61H mutant; design: species or system human; conditions: 20 μM; for KRas Q61H mutant + SOS: % inh.: with SOS (Table 7A); for KRas Q61H mutant: % inh.: without SOS (Table 7A)
# Procedure, shortened: as §1
# [6] = test system: KRas G12C mutant; design: species or system human; conditions: 20 μM; for KRas G12C mutant + SOS: % inh.: with SOS (Table 7A); for KRas G12C mutant: % inh.: without SOS (Table 7A)
# Procedure, shortened: as §1
# [7] = with SOS, read-out: Rho-A + SOS: % inh.
# [8] = without SOS, read-out: Rho-A: % inh.
# [9] = at 20 μM, with SOS, read-out: KRas G12D mutant + SOS: % inh.
# [10] = at 20 μM, without SOS, read-out: KRas G12D mutant: % inh.
# [11] = with SOS, read-out: Rac-1 + SOS: % inh.
# [12] = without SOS, read-out: Rac-1: % inh.
# [13] = 20 μM, with SOS (Table 7A), read-out: KRas G12D mutant + SOS: % inh.
# [14] = 20 μM, without SOS (Table 7A), read-out: KRas G12D mutant: % inh.
Compound,"inhibition at 20 µM [1, 7]","inhibition at 20 µM [1, 8]","inhibition at 20 µM [2, 9]","inhibition at 20 µM [2, 10]","inhibition at 20 µM [3, 11]","inhibition at 20 µM [3, 12]","inhibition at 20 µM [2, 13]","inhibition at 20 µM [2, 14]",KRas wild type + SOS: % inh. [4],KRas wild type % inh. [4],KRas Q61H mutant + SOS: % inh. [5],KRas Q61H mutant: % inh. [5],KRas G12C mutant + SOS: % inh. [6],KRas G12C mutant: % inh. [6]
CCOC1CCN(c2nc(-c3nccn3C)nc3sc(-c4ccn(C)n4)c(-c4ccccc4)c23)C1 (stereo not shown),0%,26 to 50%,26 to 50%,26 to 50%,26 to 50%,1 to 25%,–,–,–,–,–,–,–,–
CO[C@H]1CC[C@@H](Nc2nc(-c3nccn3C)nc3sc(C(=O)N4CCCC4)c(-c4ccccc4)c23)C1 [drawing 926],–,–,–,–,–,–,51 to 75%,51 to 75%,C (51-75% inhibition),C (51-75% inhibition),D (76-100% inhibition),D (76-100% inhibition),D (76-100% inhibition),D (76-100% inhibition)
CO[C@H]1CC[C@@H](Nc2nc(-c3nccn3C)nc3sc(C(=O)N4CCOCC4)c(-c4ccccc4)c23)C1 [drawing 927],–,–,–,–,–,–,51 to 75%,76 to 100%,C (51-75% inhibition),D (76-100% inhibition),D (76-100% inhibition),D (76-100% inhibition),C (51-75% inhibition),C (51-75% inhibition)
COCCn1cc(Nc2nc(-c3ccccn3)nc(OC)c2OC)cn1 [drawing 928],0%,0%,1 to 25%,1 to 25%,1 to 25%,1 to 25%,–,–,–,–,–,–,–,–
COc1nc(-c2ccccn2)nc(Nc2cnn(C)c2)c1OC [drawing 929],1 to 25%,0%,0%,0%,0%,1 to 25%,–,–,–,–,–,–,–,–
COCCNc1nc(-c2cn(C)cn2)nc2sc(-c3cc(OC)ccc3Cl)c(-c3ccc(OC)cc3)c12 [drawing 930],26 to 50%,51 to 75%,26 to 50%,26 to 50%,51 to 75%,51 to 75%,–,–,–,–,–,–,–,–
COC1CCN(c2nc(-c3nccn3C)nn3cc(-c4ccccc4)c(-c4ccccc4)c23)C1 (stereo not shown) [drawing 931],26 to 50%,51 to 75%,1 to 25%,26 to 50%,51 to 75%,26 to 50%,–,–,–,–,–,–,–,–
COCCNc1nc(-c2cn(C)cn2)nc2sc(-c3cccc(OC)c3Cl)c(-c3ccc(OC)cc3)c12 [drawing 932],51 to 75%,51 to 75%,26 to 50%,26 to 50%,51 to 75%,51 to 75%,–,–,–,–,–,–,–,–
CC(C)CN(C)C(=O)c1nc(-c2ccccn2)nc(O)c1O [drawing 933],51 to 75%,26 to 50%,26 to 50%,26 to 50%,26 to 50%,51 to 75%,–,–,–,–,–,–,–,–
CN(Cc1ccccc1)C(=O)c1nc(-c2ccccn2)nc(O)c1O [drawing 934],51 to 75%,51 to 75%,26 to 50%,26 to 50%,26 to 50%,51 to 75%,–,–,–,–,–,–,–,–
O=C(c1nc(-c2ccccn2)nc(O)c1O)N1CCOCC1 [drawing 935],26 to 50%,26 to 50%,26 to 50%,26 to 50%,26 to 50%,51 to 75%,–,–,–,–,–,–,–,–
COc1cccc(Oc2nc(-c3ccccn3)nc(O)c2OC)c1 [drawing 936],51 to 75%,51 to 75%,51 to 75%,76 to 100%,76 to 100%,76 to 100%,–,–,–,–,–,–,–,–
COc1c(O)nc(-c2ccccn2)nc1Oc1cccnc1 [drawing 937],76 to 100%,76 to 100%,51 to 75%,51 to 75%,76 to 100%,76 to 100%,–,–,–,–,–,–,–,–
COc1c(O)nc(-c2ccccn2)nc1Oc1cnn(C)c1 [drawing 938],51 to 75%,51 to 75%,51 to 75%,51 to 75%,76 to 100%,76 to 100%,–,–,–,–,–,–,–,–
COc1c(O)nc(-c2ccccn2)nc1Oc1ccc2ncccc2c1 [drawing 939],76 to 100%,76 to 100%,26 to 50%,51 to 75%,51 to 75%,51 to 75%,–,–,–,–,–,–,–,–
COCC1CN(c2nc(-c3nccn3C)nc3sc(-c4cccc(OC)c4F)c(-c4ccc(OC)cc4)c23)C1 [drawing 940],51 to 75%,51 to 75%,51 to 75%,51 to 75%,0%,0%,–,–,–,–,–,–,–,–
COc1ccc(-c2c(-c3cccc(OC)c3F)sc3nc(-c4nccn4C)nc(N4CCC(OC)C4)c23)cc1 (stereo not shown) [drawing 941],51 to 75%,51 to 75%,51 to 75%,51 to 75%,0%,0%,–,–,–,–,–,–,–,–
Cc1cn(C)c(-c2nc(O)c3scc(-c4ccccn4)c3n2)n1 [drawing 942],76 to 100%,76 to 100%,26 to 50%,76 to 100%,51 to 75%,51 to 75%,–,–,–,–,–,–,–,–
Cc1cnc(-c2nc(O)c3scc(-c4ccccn4)c3n2)n1C [drawing 943],51 to 75%,51 to 75%,1 to 25%,51 to 75%,51 to 75%,1 to 25%,–,–,–,–,–,–,–,–
O=C(NC1CCC1)c1nc(-c2ccccn2)nc(O)c1O [drawing 944],76 to 100%,51 to 75%,26 to 50%,51 to 75%,76 to 100%,76 to 100%,–,–,–,–,–,–,–,–
COCCN(C)C(=O)c1nc(-c2ccccn2)nc(O)c1O [drawing 945],26 to 50%,26 to 50%,1 to 25%,1 to 25%,51 to 75%,51 to 75%,–,–,–,–,–,–,–,–
CC(C)CNC(=O)c1nc(-c2ccccn2)nc(O)c1O [drawing 946],51 to 75%,51 to 75%,1 to 25%,51 to 75%,76 to 100%,51 to 75%,–,–,–,–,–,–,–,–
O=C(NC1CCCC1)c1nc(-c2ccccn2)nc(O)c1O [drawing 947],51 to 75%,51 to 75%,1 to 25%,51 to 75%,51 to 75%,51 to 75%,–,–,–,–,–,–,–,–
